# Laboratory results reported in patent US20240269238A1, “Therapeutic Regimens and Methods for Reducing Body Weight in a Subject with Fatty Liver Disease using a GLP-1R and GCGR Agonist” (Spitfire Pharma LLC, priority 2022, published 2024).
# “Also recorded” adds a separate entry of the source.
# What was measured:
# [1] = Phase 1 12-week study in overweight/obese subjects (NCT0456124, Example 2): key pharmacodynamic endpoints; type: in vivo, human
# Protocol: To test the lipid-lowering effects of pemvidutide, an analysis of Phase I clinical trial (NCT0456124) data was carried out. The subjects with overweight/obesity (BMI 25-40 kg/m^2) were randomized at 1 site in Australia (NCT0456124). Subjects were randomized 4:1 pemvidutide:placebo, with placebos pooled. […] Lipoprotein and glycoprotein profiling covering 33 lipoprotein related parameters was performed by ^1H-NMR on fasting plasma samples obtained at Day −1 (baseline), Day 43, and Day 84 from the 34 subjects who completed NCT0456124. Lipidomic profiling covering 600 lipid species was performed by ultra-high performance liquid chromatography-mass spectrometry on fasting plasma samples obtained at Day −1 (baseline), Day 43, and Day 84 from the 34 subjects who completed NCT0456124. For the lipid profiling, plasma fractionation was performed either using methanol to extract fatty acyls, bile acids, steroids, and lyso-glycerophospholipids, or using a chloroform/methanol mix to extract glycerolipids, cholesteryl esters, sphingolipids, and glycerophospholipids. Lipid classification followed the classification system proposed by Fahy et al. (J. Lipid Res. 2005; 46:839-861) and the LIPID MAPS initiative (http://www.lipidmaps.org) (see FIG. 8).
# [2] = Phase 1 study NCT0456124 (Example 2): safety and tolerability; type: in vivo, human; conditions: 12 weeks
structure (smiles),measurement,setting,value
"CC[C@H](C)[C@H](NC(=O)[C@H](Cc1ccccc1)NC(=O)[C@H](CCC(=O)O)NC(=O)[C@@H]1CCCCNC(=O)CC[C@H](NC(=O)[C@H](CC(=O)O)NC(=O)[C@H](CC(C)C)NC(=O)[C@H](Cc2ccc(O)cc2)NC(=O)[C@H](CCCCN)NC(=O)[C@H](CO)NC(=O)[C@H](Cc2ccc(O)cc2)NC(=O)[C@H](CC(=O)O)NC(=O)[C@H](CO)NC(=O)[C@@H](NC(=O)[C@H](Cc2ccccc2)NC(=O)[C@@H](NC(=O)CNC(=O)[C@H](CCC(N)=O)NC(=O)C(C)(C)NC(=O)[C@@H](N)Cc2c[nH]cn2)[C@@H](C)O)[C@H](C)O)C(=O)N[C@@H](CCCCNC(=O)C2O[C@@H](OCCCCCCCCCCCCCCCCCC(=O)O)C(O)C(O)[C@@H]2O)C(=O)N[C@@H](C)C(=O)N[C@@H](C)C(=O)N1)C(=O)N[C@@H](CCC(N)=O)C(=O)N[C@@H](Cc1c[nH]c2ccccc12)C(=O)N[C@@H](CC(C)C)C(=O)N[C@@H](CC(C)C)C(=O)N[C@@H](CCC(N)=O)C(=O)N[C@H](C(N)=O)[C@@H](C)O (stereo partly shown) [ALT-801, Pemvidutide]","Apoprotein B, change from baseline, mean","[1]; 1.2 mg weekly, 12 weeks",−45.4%
same,"BMI, change from baseline, mean","[1]; 1.2 mg weekly, 12 weeks",−4.8%
same,"Diastolic BP, change from baseline, mean","[1]; 1.2 mg weekly, 12 weeks",−4.7%
same,"HDL cholesterol, change from baseline, mean","[1]; 1.2 mg weekly, 12 weeks",−16.7%
same,"LDL cholesterol, change from baseline, mean","[1]; 1.2 mg weekly, 12 weeks",−18.4%
same,"Systolic BP, change from baseline, mean","[1]; 1.2 mg weekly, 12 weeks",−10.2%
same,"Total cholesterol, change from baseline, mean","[1]; 1.2 mg weekly, 12 weeks",−20.0%
same,"Triglycerides, change from baseline, mean","[1]; 1.2 mg weekly, 12 weeks",−37.0%
same,"Weight loss, change from baseline, mean","[1]; 1.2 mg weekly, 12 weeks (n = 7)",−4.9%
same,"mean body weight loss, placebo adjusted","[1]; 1.8 mg dose level, 12 weeks",8.7%
same,mean body weight loss,"[1]; 1.8 mg dose level, 12 weeks of weekly treatment",10.3%
same,subjects achieving at least 10% body weight loss,"[1]; 1.8 mg group, week 12",over half
same,subjects losing at least 5% of body weight,"[1]; 1.8 mg group, week 12",all subjects lost at least 5% of their body weight
same,"Apoprotein B, change from baseline, mean","[1]; 1.8 mg weekly, 12 weeks",−23.4%
same,"BMI, change from baseline, mean","[1]; 1.8 mg weekly, 12 weeks",−10.4%
same,"Diastolic BP, change from baseline, mean","[1]; 1.8 mg weekly, 12 weeks",−7.1%
same,"HDL cholesterol, change from baseline, mean","[1]; 1.8 mg weekly, 12 weeks",−30.3%
same,"LDL cholesterol, change from baseline, mean","[1]; 1.8 mg weekly, 12 weeks",−25.6%
same,"Systolic BP, change from baseline, mean","[1]; 1.8 mg weekly, 12 weeks",−12.5%
same,"Total cholesterol, change from baseline, mean","[1]; 1.8 mg weekly, 12 weeks",−28.0%
same,"Triglycerides, change from baseline, mean","[1]; 1.8 mg weekly, 12 weeks",−37.9%
same,"Weight loss, change from baseline, mean","[1]; 1.8 mg weekly, 12 weeks (n = 9)",−10.3%
same,"Apoprotein B, change from baseline, mean","[1]; 2.4 mg weekly, 12 weeks",−16.8%
same,"BMI, change from baseline, mean","[1]; 2.4 mg weekly, 12 weeks",−7.0%
same,"Diastolic BP, change from baseline, mean","[1]; 2.4 mg weekly, 12 weeks",−6.0%
same,"HDL cholesterol, change from baseline, mean","[1]; 2.4 mg weekly, 12 weeks",−36.0%
same,"LDL cholesterol, change from baseline, mean","[1]; 2.4 mg weekly, 12 weeks",−23.9%
same,"Systolic BP, change from baseline, mean","[1]; 2.4 mg weekly, 12 weeks",−17.4%
same,"Total cholesterol, change from baseline, mean","[1]; 2.4 mg weekly, 12 weeks",−27.7%
same,"Triglycerides, change from baseline, mean","[1]; 2.4 mg weekly, 12 weeks",−29.2%
same,"Weight loss, change from baseline, mean","[1]; 2.4 mg weekly, 12 weeks (n = 11)",−9.0%
same,tolerability,"[2]; 1.2, 1.8, 2.4 mg weekly, no dose titration",well-tolerated at all dose levels; also recorded: safe and well-tolerated
same,SAEs or AEs leading to treatment discontinuation,[2],no SAEs or AEs leading to treatment discontinuation were reported
same,severity of AEs,[2],mild or moderate severity
